Experimental data reported in patent publication US20150352108A1, “AMINO-PYRIMIDINE COMPOUNDS AS INHIBITORS OF TBK1 AND/OR IKK EPSILON” (Alzheimer's Institute of America, priority 2009, published 2015).

What was measured:
IKKε = target: T1, IKKε (Homo sapiens, UniProt Q14164); experiment: In-vitro IKKε kinase assay ([γ33]ATP filter-plate); assay type: biochemical; conditions: text bins; read-out: IC50 for inhibition of the kinase activity of IKKε
T1 construct: His-tag; made in house; host or cells: Sf9 insect cells
T1 sequence (Q14164 1-716): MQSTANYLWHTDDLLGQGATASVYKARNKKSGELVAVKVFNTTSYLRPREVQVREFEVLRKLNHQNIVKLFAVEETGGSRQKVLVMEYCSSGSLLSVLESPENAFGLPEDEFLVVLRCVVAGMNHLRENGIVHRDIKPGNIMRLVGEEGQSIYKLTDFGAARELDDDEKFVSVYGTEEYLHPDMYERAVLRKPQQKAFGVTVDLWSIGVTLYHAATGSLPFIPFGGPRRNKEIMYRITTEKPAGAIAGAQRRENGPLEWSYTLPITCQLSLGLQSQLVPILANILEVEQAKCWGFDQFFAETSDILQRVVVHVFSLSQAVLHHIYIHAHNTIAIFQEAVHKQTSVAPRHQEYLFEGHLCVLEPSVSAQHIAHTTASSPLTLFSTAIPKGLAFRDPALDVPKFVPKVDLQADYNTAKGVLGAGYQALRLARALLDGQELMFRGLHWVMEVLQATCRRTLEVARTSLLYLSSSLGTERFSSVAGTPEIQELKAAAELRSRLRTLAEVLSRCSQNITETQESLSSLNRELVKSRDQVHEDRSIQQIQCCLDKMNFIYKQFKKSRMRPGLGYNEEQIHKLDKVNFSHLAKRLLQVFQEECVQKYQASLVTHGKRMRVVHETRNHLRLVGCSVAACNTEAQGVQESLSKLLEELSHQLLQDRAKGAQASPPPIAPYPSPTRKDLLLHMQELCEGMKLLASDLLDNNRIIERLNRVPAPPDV
In short: (§1)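 His-tagged IKKε and TBK1 from Sf9 cells were assayed with myelin basic protein or casein and [γ33]ATP at 2×Km ATP (32 μM for IKKε, 60 μM for TBK1). Enzyme was 0.1 or 0.015 μg/ml for IKKε and 0.1 or 0.02 μg/ml for TBK1 (normal/sensitized). Reactions ran 30-45 min, were filter-captured, scintillation-counted, and normalized to DMSO after background subtraction.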

TBK1 = target: T2, TBK1 (Homo sapiens, UniProt Q9UHD2); experiment: In-vitro TBK1 kinase assay ([γ33]ATP filter-plate); assay type: biochemical; conditions: text bins; read-out: IC50 for inhibition of the kinase activity of TBK1
T2 construct: His-tag; made in house; host or cells: Sf9 insect cells
T2 sequence (Q9UHD2 1-729): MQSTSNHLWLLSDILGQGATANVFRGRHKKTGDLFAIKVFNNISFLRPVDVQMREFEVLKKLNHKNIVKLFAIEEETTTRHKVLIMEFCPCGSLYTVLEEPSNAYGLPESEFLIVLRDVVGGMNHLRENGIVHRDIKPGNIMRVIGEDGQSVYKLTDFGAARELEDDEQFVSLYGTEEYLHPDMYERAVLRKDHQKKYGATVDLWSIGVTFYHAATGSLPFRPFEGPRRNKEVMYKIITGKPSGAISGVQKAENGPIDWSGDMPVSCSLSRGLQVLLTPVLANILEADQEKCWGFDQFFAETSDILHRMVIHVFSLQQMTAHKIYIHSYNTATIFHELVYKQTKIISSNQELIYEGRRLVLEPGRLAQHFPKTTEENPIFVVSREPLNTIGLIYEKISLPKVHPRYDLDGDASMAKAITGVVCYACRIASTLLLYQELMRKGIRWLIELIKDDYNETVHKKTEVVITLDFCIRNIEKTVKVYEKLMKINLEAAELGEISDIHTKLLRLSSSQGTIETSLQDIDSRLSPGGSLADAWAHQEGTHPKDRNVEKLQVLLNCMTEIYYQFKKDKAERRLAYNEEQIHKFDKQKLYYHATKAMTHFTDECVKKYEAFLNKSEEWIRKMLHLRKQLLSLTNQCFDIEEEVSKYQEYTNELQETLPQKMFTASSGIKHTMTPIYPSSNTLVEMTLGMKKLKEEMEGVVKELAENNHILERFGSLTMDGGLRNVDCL
In short: as §1

IC50 (IKKε) [nM]	IC50 (TBK1) [nM]	Structure (SMILES)
5 to 50	< 10	Cc1ccc(-c2ccnc(Nc3ccc(N4CCOCC4)cc3)n2)cc1C#N [Example 269, 2-Methyl-5-(2-{[4-(morpholin-4-yl)phenyl]amino}pyrimidin-4-yl)benzonitrile]
5 to 50	10 to 100	COc1cc(Nc2nccc(-c3ccc(OC(C)C)c(C#N)c3)n2)cc(OC)c1 [Example 272, 5-{2-[(3,5-Dimethoxyphenyl)amino]pyrimidin-4-yl}-2-(propan-2-yloxy)benzonitrile]
5 to 50	10 to 100	COc1ccc(-c2ccnc(Nc3ccc(OCCN4CCOCC4)c(OC)c3)n2)cc1C#N [Example 273, 2-Methoxy-5-[2-({3-methoxy-4-[2-(morpholin-4-yl)ethoxy]phenyl}amino)pyrimidin-4-yl]benzonitrile]
< 5	< 10	COc1cc(Nc2nccc(-c3ccc(OC4CCOCC4)c(C#N)c3)n2)ccc1C(=O)NCc1cccnc1 [Example 275, 4-({4-[3-cyano-4-(tetrahydro-2H-pyran-4-yloxy)phenyl]pyrimidin-2-yl}amino)-2-methoxy-N-(pyridin-3-ylmethyl)benzamide]
50 to 500	100 to 500	CCOc1cccc(Nc2nccc(-c3cccc(C#N)c3)n2)c1 [Example 276, 3-{2-[(3-Ethoxyphenyl)amino]pyrimidin-4-yl}benzonitrile]
5 to 50	10 to 100	COCC(=O)Nc1cc(Nc2nccc(-c3ccc(OC)c(C#N)c3)n2)cc(OC)c1 [Example 278, N-(3-{[4-(3-Cyano-4-methoxyphenyl)pyrimidin-2-yl]amino}-5-methoxyphenyl)-2-methoxyacetamide]
5 to 50	10 to 100	COc1cc(NC(=O)N[C@H]2CC[C@H](O)CC2)cc(Nc2nccc(-c3ccc(OC)c(C#N)c3)n2)c1 [Example 280, 1-(3-{[4-(3-Cyano-4-methoxyphenyl)pyrimidin-2-yl]amino}-5-methoxyphenyl)-3-(trans-4-hydroxycyclohexyl) urea]
5 to 50	10 to 100	COc1ccc(-c2ccnc(Nc3ccc(S(=O)(=O)NCCO)c(OC)c3)n2)cc1C#N [Example 281, 4-{[4-(3-Cyano-4-methoxyphenyl)pyrimidin-2-yl]amino}-N-(2-hydroxyethyl)-2-methoxybenzene-sulfonamide]
5 to 50	< 10	CN1CCN(S(=O)(=O)c2ccc(Nc3nccc(-c4ccc(OC5CCOCC5)c(C#N)c4)n3)cc2)CC1 [Example 284, 5-[2-({4-[(4-methylpiperazin-1-yl)sulfonyl]phenyl}amino)pyrimidin-4-yl]-2-(tetrahydro-2H-pyran-4-yloxy)benzonitrile]
5 to 50	< 10	N#Cc1cc(-c2ccnc(Nc3ccc(N4CCOCC4)cc3)n2)ccc1NN1CCOCC1 [Example 285, 2-(morpholin-4-ylamino)-5-(2-{[4-(morpholin-4-yl)phenyl]amino}pyrimidin-4-yl)benzonitrile]
50 to 500	100 to 500	CN(C)c1ccc(Nc2nccc(-c3cccc(C#N)c3)n2)cc1 [Example 286, 3-(2-{[4-(Dimethylamino)phenyl]amino}pyrimidin-4-yl)benzonitrile]
< 5	< 10	COc1cc(Nc2nccc(-c3ccc(OC4CCN(C(=O)[C@H](C)O)CC4)c(C#N)c3)n2)ccc1C(=O)NCCN(C)C [Example 287, 4-({4-[3-cyano-4-({1-[(2S)-2-hydroxypropanoyl]piperidin-4-yl}oxy)phenyl]pyrimidin-2-yl}amino)-N-[2-(dimethylamino)ethyl]-2-methoxybenzamide]
5 to 50	< 10	COc1ccc(-c2ccnc(Nc3ccc(OC4CCN(C)CC4)cc3)n2)cc1C#N [Example 288, 2-Methoxy-5-[2-({4-[(1-methylpiperidin-4-yl)oxy]phenyl}amino)pyrimidin-4-yl]benzonitrile]
50 to 500	10 to 100	CN(C)CCOc1ccc(Nc2nccc(-c3cccc(C#N)c3)n2)cc1 [Example 291, 3-[2-({4-[2-(Dimethylamino)ethoxy]phenyl}amino)pyrimidin-4-yl]benzonitrile]
5 to 50	10 to 100	COc1cc(NC(=O)N2CC[C@H](O)C2)cc(Nc2nccc(-c3ccc(OC)c(C#N)c3)n2)c1 [compound 294, (3S)-N-(3-{[4-(3-Cyano-4-methoxyphenyl)pyrimidin-2-yl]amino}-5-methoxyphenyl)-3-hydroxypyrrolidine-1-carboxamide]
5 to 50	10 to 100	COc1cc(NC(=O)NCCO)cc(Nc2nccc(-c3ccc(OC)c(C#N)c3)n2)c1 [compound 295, 1-(3-{[4-(3-Cyano-4-methoxyphenyl)pyrimidin-2-yl]amino}-5-methoxyphenyl)-3-(2-hydroxyethyl)urea]
5 to 50	< 10	COc1cc(Nc2nccc(-c3ccc(OCCO)c(C#N)c3)n2)ccc1N1CCNC(=O)C1 [compound 296, 2-(2-Hydroxyethoxy)-5-(2-{[3-methoxy-4-(3-oxopiperazin-1-yl)phenyl]amino}pyrimidin-4-yl)benzonitrile]
5 to 50	< 10	COc1ccc(-c2ccnc(Nc3ccc(N4CCN(C)CC4)cc3)n2)cc1C#N [compound 297, 2-Methoxy-5-(2-{[4-(4-methylpiperazin-1-yl)phenyl]amino}pyrimidin-4-yl)benzonitrile]
5 to 50	10 to 100	COc1ccc(-c2ccnc(Nc3ccc(OC4CCN(C)CC4)c(OC)c3)n2)cc1C#N [compound 302, 2-Methoxy-5-[2-({3-methoxy-4-[(1-methylpiperidin-4-yl)oxy]phenyl}amino)pyrimidin-4-yl]benzonitrile]
5 to 50	10 to 100	COc1ccc(-c2ccnc(Nc3ccc(S(=O)(=O)NCCCO)c(OC)c3)n2)cc1C#N [compound 303, 4-{[4-(3-Cyano-4-methoxyphenyl)pyrimidin-2-yl]amino}-N-(3-hydroxypropyl)-2-methoxybenzene-sulfonamide]
5 to 50	10 to 100	COc1cc(Nc2nccc(-c3ccc(OC)c(C#N)c3)n2)cc(C(=O)O)c1 [compound 305]
< 5	< 10	COc1cc(Nc2nccc(-c3ccc(OC4CCOCC4)c(C#N)c3)n2)ccc1C(N)=O [compound 311, 4-({4-[3-cyano-4-(tetrahydro-2H-pyran-4-yloxy)phenyl]pyrimidin-2-yl}amino)-2-methoxybenzamide]
5 to 50	10 to 100	COc1ccc(-c2ccnc(Nc3ccc(N4CCS(=O)(=O)CC4)cc3)n2)cc1C#N [compound 313]
5 to 50	10 to 100	COc1ccc(-c2ccnc(Nc3cccc(OCCN4CCOCC4)c3)n2)cc1C#N [compound 314, 2-Methoxy-5-[2-({3-[2-(morpholin-4-yl)ethoxy]phenyl}amino)pyrimidin-4-yl]benzonitrile]
5 to 50	< 10	COc1cc(NC(=O)NCCCO)cc(Nc2nccc(-c3ccc(OC)c(C#N)c3)n2)c1 [compound 315, 1-(3-{[4-(3-Cyano-4-methoxyphenyl)pyrimidin-2-yl]amino}-5-methoxyphenyl)-3-(3-hydroxypropyl)urea]
5 to 50	10 to 100	COc1ccc(Nc2nccc(-c3cccc(C#N)c3)n2)cc1Cl [compound 318, 3-{2-[(3-Chloro-4-methoxyphenyl)amino]pyrimidin-4-yl}benzonitrile]
50 to 500	10 to 100	COc1cc(NC(=O)NCCCN)cc(Nc2nccc(-c3ccc(OC)c(C#N)c3)n2)c1 [compound 320, 1-(3-Aminopropyl)-3-(3-{[4-(3-cyano-4-methoxyphenyl)pyrimidin-2-yl]amino}-5-methoxyphenyl)urea]
